Values joined by “and” are separate entries in the source; they are usually repeats but may differ in a detail not shown here. Equal entries are not always repeated.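 Method: 48-hour compound exposure of cells in 96-well plates, five concentrations, linear interpolation of endpoints. Here, GI50 denotes the concentration required for 50% inhibition of growth. TGI marks complete inhibition of growth.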
Assays:
Test in all cases: inhibition of tumour cell growth, NCI panel, 48 h
KM20L2 colon = test system: KM20L2 colon
DLD-1 colon = test system: DLD-1 colon
DMS 114 small cell lung = test system: DMS 114 small cell lung
XF 498 CNS = test system: XF 498 CNS
DMS 273 small cell lung = test system: DMS 273 small cell lung
HOP-18 NSCLC = test system: HOP-18 NSCLC
SNB-78 CNS = test system: SNB-78 CNS
RXF-631 renal = test system: RXF-631 renal
MDA-N = test system: MDA-N

| Compound | TGI (KM20L2 colon) | TGI (DLD-1 colon) | TGI (DMS 114 small cell lung) | TGI (XF 498 CNS) | TGI (DMS 273 small cell lung) | TGI (HOP-18 NSCLC) | TGI (SNB-78 CNS) | TGI (RXF-631 renal) | other results |
| --- | --- | --- | --- | --- | --- | --- | --- | --- | --- |
| CCCNC(=O)C1C(=O)C(=O)N(CCC)C1=O (centres undefined) | > 100 µM | > 100 µM | > 100 µM | > 100 µM | > 100 µM | > 100 µM | > 100 µM |  |  |
| CCOC(=O)C1=C(Nc2ccc(Cl)cc2Cl)OCC1=O | > 100 µM | > 100 µM |  | > 100 µM | > 100 µM |  | > 100 µM | > 100 µM |  |
| CCC(=O)c1c(NOC2OCC(OC(C)=O)C(OC(C)=O)C2OC(C)=O)nc(OC)n(C)c1=O (centres undefined) | > 100 µM | > 100 µM | > 100 µM | > 100 µM | > 100 µM |  | > 100 µM |  |  |
| N/N=C1\C(=O)N(C2CCCCCC2)C(=O)C1C(=O)NC1CCCCCC1 (centres undefined) | 38.1 µM | > 100 µM |  |  |  | 91.4 µM | 77.3 µM |  |  |
| CCNC(=O)COc1ccc(Br)cc1Br | > 100 µM | > 100 µM | > 100 µM |  | > 100 µM | > 100 µM | > 100 µM | > 100 µM |  |
| O=C(CCC(=O)Nc1ccc(Cl)c(Cl)c1)CC(=O)c1ccc(Br)cc1 | > 100 µM | > 100 µM | > 100 µM | > 100 µM |  | > 100 µM | > 100 µM | > 100 µM |  |
| CC(=O)N/N=C1\CC(C)(C)C2CCC1C2 (centres undefined) |  |  | > 100 µM | > 100 µM | > 100 µM |  | > 100 µM |  |  |
| COc1cc(C2SCCCCCCCCCCSC(c3ccc(O)c(OC)c3)SCCCCCCCCCCS2)ccc1O (centres undefined) |  |  |  |  |  |  |  |  | TGI (MDA-N): > 100 µM |
| COC/C=C\COC | > 100 µM | > 100 µM | > 100 µM | > 100 µM | > 100 µM | > 100 µM | > 100 µM | > 100 µM |  |
| CC1=CC(=O)CC2(C)CC[C@@H]3C[C@]12OC3(C)C (some centres undefined) | > 100 µM | > 100 µM | > 100 µM | > 100 µM | > 100 µM | > 100 µM | > 100 µM |  |  |
| Cc1[nH]nc(C(F)(F)F)c1N=NN(C)C |  |  |  |  |  |  |  |  | TGI (MDA-N): > 100 µM |
| CC1CCC2(NC1)OC1CC3C4CC=C5CC(O)CCC5(C)C4CCC3(C)C1C2C (centres undefined) |  |  |  |  |  |  |  |  | GI50 (MDA-N): 31.1 µM and 12.2 µM; TGI (MDA-N): > 100 µM |
| O=C(O)c1ccc(CI)cc1 |  |  |  |  |  |  |  |  | TGI (MDA-N): 34.4 µM |
| C#Cc1cccc(N2C(=O)c3c(c(-c4ccccc4)c(-c4ccc(Cc5ccc(-c6c(-c7ccccc7)c7c(c(-c8ccccc8)c6-c6ccccc6)C(=O)N(c6cccc(C#C)c6)C7=O)cc5)cc4)c(-c4ccccc4)c3-c3ccccc3)C2=O)c1 | > 100 µM | > 100 µM | > 100 µM | 72.7 µM | > 100 µM |  | > 100 µM |  |  |
| C=C(CC(NC(=O)c1ccc(C(CC)Cc2cnc3nc(N)nc(N)c3n2)cc1)C(=O)O)C(=O)O (centres undefined) | > 100 µM | > 100 µM |  |  | > 100 µM |  | > 100 µM |  |  |
| CC1=C(C(=O)CC(=O)C(=O)Nc2cc(C)ccc2C)Sc2ccccc2N1 |  | > 100 µM | > 100 µM | > 100 µM |  | > 100 µM | > 100 µM | > 100 µM |  |
| O=c1/c(=C/c2ccccc2[N+](=O)[O-])sc2nc3ccccc3n12 | > 100 µM | 37.3 µM | 36.8 µM | > 59.3 µM | > 46.4 µM | > 46.4 µM | > 46.4 µM | > 46.4 µM |  |
| COC12CCC(=O)C=C1c1ccccc1N2C(C)=O (centres undefined) | > 100 µM | > 100 µM | > 100 µM | > 100 µM | > 100 µM | > 100 µM | > 100 µM |  |  |
| CCC[CH2][Sn]([Cl])([Cl])[CH2]CCC | 3.01 µM | 1.99 µM |  | 1.44 µM | 3.73 µM | 2.56 µM | 1.43 µM |  | GI50 (KM20L2 colon): 1.49 µM; GI50 (DLD-1 colon): 0.649 µM; GI50 (XF 498 CNS): 0.534 µM; GI50 (DMS 273 small cell lung): 1.29 µM; GI50 (HOP-18 NSCLC): 1.29 µM; GI50 (SNB-78 CNS): 0.333 µM |

| Compound | TGI (KM20L2 colon) | TGI (DLD-1 colon) | TGI (DMS 114 small cell lung) | TGI (XF 498 CNS) | TGI (DMS 273 small cell lung) | TGI (HOP-18 NSCLC) | TGI (SNB-78 CNS) | TGI (RXF-631 renal) | other results |
| --- | --- | --- | --- | --- | --- | --- | --- | --- | --- |
| COC(=O)C1C(O)CCC2CN3CCc4c([nH]c5ccccc45)C3CC21 (centres undefined) |  |  |  |  |  |  |  |  | TGI (MDA-N): > 100 µM |
| CCc1ccc(NC(=O)NC(=O)c2ccccc2[N+](=O)[O-])cc1Oc1ncc(Cl)cn1 | 0.0481 µM | > 100 µM | > 100 µM |  |  | > 100 µM | > 100 µM |  |  |
| C/C=C(/I)CBr | 88.5 µM | 29.2 µM | 28.4 µM | 27 µM |  |  | 93.9 µM | 36.2 µM |  |
| CC[n+]1oc(C(=O)c2ccc(Cl)cc2)c(-c2ccccc2)c1-c1ccccc1.[Cl][Fe]([Cl])([Cl])[Cl] |  |  |  |  |  |  |  |  | GI50 (MDA-N): 28.7 µM; TGI (MDA-N): > 100 µM |
| CN(C)CCNc1ccc(CO)c2sc3ccc(O)cc3c(=O)c12 | 22.7 µM | 18.6 µM | 16.5 µM | 19.9 µM | 9.97 µM | 29.6 µM | > 45.6 µM |  | TGI (MDA-N): 3.7 µM |
| CC1=Nc2c(ccc3c2C(=O)c2ccccc2C3=O)NC(c2cccc3c2CCC3)C1 (centres undefined) | > 100 µM | > 100 µM |  | > 100 µM | > 100 µM | > 100 µM | > 100 µM | > 100 µM |  |
| Cc1ccccc1NC(=O)c1cc(-c2ccc([N+](=O)[O-])cc2)nc(=S)[nH]1 | > 100 µM | > 100 µM | > 100 µM |  | > 100 µM | > 100 µM | > 100 µM | > 100 µM |  |
| CCOC(=O)C(=O)Nc1ccccc1C | > 100 µM | > 100 µM | > 100 µM | 87.9 µM |  |  | > 100 µM | > 100 µM |  |
| COc1ccc(OC)c(NC(=O)CCC/C(CC(=O)c2ccc(O)c(OC)c2)=N\Nc2nnc(C)n2N)c1 | > 100 µM | > 100 µM | > 100 µM | > 100 µM | > 100 µM | > 100 µM |  |  |  |
| N#Cc1ccccc1C(Cl)(Cl)c1cnccn1 |  | > 100 µM | 43 µM | 33.8 µM | > 100 µM | > 100 µM | > 100 µM |  |  |
| CC(C)(C)c1cc(C(O)(C(F)(F)F)C(F)(F)F)c2c(c1)C(C(F)(F)F)(C(F)(F)F)OC(C)(C(C)(C)C)N2 (centres undefined) | > 100 µM | > 100 µM | 8.64 µM | 4.25 µM | 10.8 µM |  | 99 µM |  |  |
| O=C1c2ccccc2-[n+]2ccc3c([nH]c4ccccc43)c21 |  |  |  |  |  |  |  |  | TGI (MDA-N): 0.318 µM |
| COC(=O)/C=C(C)/C=C/C1OC(C)OCC1O (centres undefined) | > 100 µM | > 100 µM | > 100 µM |  | > 100 µM |  | > 100 µM |  |  |
| COc1ccc(NC(=O)/C(=C/c2ccccc2)C(C)=O)cc1 | 29.2 µM | 28.7 µM | 30.7 µM | 30.6 µM | 30.8 µM | 28.2 µM | 44.8 µM | 31.2 µM |  |
| CC(Oc1ccc2c(-c3ccccc3)cc(=O)oc2c1)C(=O)O (centres undefined) | > 100 µM | > 100 µM | > 100 µM | > 100 µM |  | > 100 µM | > 100 µM |  |  |
| C=CCNc1nc2c(s1)C(=O)c1ccccc1C2=O | 33.5 µM |  | 3.27 µM | 34.8 µM | 28.2 µM | 23.1 µM | 72.9 µM |  | TGI (MDA-N): 3.28 µM |
| CCOC(=O)c1cc2cc3c4c(c2oc1=O)CCCN4CCC3 |  |  |  |  |  |  |  |  | TGI (MDA-N): > 100 µM |
| O=C(Cc1nc2ccccc2c(=O)n1-c1ccccc1Cl)c1ccncc1 | > 100 µM | > 100 µM | > 100 µM |  | > 100 µM | > 100 µM | > 100 µM | > 100 µM |  |

— PubChem BioAssay (NCI)
